Data reported in ChEMBL document CHEMBL5291721, “A preclinical secondary pharmacology resource illuminates target-adverse drug reaction associations of marketed drugs” (Nat Commun, 2023).

Key:
[1] = target: Sodium-dependent noradrenaline transporter (Homo sapiens, UniProt P23975)
[2] = target: T1, Alpha-2A adrenergic receptor (Homo sapiens, UniProt P08913); assay type: functional, cell-based
T1 sequence (P08913 whole entry): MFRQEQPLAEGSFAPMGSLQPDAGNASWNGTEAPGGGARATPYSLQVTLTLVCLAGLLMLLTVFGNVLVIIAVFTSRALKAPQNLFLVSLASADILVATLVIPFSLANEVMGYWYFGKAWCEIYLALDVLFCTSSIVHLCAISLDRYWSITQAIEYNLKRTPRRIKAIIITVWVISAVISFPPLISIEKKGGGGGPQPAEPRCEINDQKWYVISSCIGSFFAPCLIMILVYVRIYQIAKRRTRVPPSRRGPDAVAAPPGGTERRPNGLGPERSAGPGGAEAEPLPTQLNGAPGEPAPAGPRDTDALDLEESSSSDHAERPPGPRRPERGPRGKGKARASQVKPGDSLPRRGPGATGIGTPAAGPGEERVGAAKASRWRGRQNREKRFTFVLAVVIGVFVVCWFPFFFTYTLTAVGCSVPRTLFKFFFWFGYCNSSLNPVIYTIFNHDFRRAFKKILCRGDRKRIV

[3] = target: Gamma-aminobutyric acid receptor subunit alpha-1 (Rattus norvegicus, UniProt P62813); assay type: functional
Sequence of Gamma-aminobutyric acid receptor subunit alpha-1 (P62813 whole entry): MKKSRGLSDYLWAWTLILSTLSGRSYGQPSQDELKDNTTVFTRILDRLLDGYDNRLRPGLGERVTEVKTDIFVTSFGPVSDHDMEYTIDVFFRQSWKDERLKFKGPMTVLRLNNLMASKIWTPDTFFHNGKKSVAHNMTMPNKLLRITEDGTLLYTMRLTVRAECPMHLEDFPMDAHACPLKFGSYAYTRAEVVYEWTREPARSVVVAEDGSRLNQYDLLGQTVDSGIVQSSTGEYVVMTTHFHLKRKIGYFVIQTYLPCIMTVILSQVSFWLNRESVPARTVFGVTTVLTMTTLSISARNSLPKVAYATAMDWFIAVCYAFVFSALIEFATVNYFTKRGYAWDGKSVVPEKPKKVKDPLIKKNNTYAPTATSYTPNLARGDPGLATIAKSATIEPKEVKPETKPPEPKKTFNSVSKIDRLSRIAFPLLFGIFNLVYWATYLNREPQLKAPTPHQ

D(1A) dopamine receptor = D(1A) dopamine receptor (Homo sapiens, UniProt P21728); assay type: functional, cell-based
Sequence of D(1A) dopamine receptor (P21728 whole entry): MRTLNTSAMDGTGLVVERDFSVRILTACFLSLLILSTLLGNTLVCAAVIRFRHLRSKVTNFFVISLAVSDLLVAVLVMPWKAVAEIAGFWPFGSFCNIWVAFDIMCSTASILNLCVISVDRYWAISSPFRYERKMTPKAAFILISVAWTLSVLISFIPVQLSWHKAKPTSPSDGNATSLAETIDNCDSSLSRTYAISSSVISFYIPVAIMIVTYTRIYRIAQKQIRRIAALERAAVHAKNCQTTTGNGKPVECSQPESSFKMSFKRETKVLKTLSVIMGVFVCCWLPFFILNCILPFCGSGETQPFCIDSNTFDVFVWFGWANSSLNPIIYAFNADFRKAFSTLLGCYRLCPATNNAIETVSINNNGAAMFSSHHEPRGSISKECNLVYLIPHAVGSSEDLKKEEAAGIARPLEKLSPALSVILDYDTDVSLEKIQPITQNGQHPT

[4] = target: T2, Muscarinic acetylcholine receptor M2 (Homo sapiens, UniProt P08172); assay type: functional, cell-based
T2 sequence (P08172 whole entry): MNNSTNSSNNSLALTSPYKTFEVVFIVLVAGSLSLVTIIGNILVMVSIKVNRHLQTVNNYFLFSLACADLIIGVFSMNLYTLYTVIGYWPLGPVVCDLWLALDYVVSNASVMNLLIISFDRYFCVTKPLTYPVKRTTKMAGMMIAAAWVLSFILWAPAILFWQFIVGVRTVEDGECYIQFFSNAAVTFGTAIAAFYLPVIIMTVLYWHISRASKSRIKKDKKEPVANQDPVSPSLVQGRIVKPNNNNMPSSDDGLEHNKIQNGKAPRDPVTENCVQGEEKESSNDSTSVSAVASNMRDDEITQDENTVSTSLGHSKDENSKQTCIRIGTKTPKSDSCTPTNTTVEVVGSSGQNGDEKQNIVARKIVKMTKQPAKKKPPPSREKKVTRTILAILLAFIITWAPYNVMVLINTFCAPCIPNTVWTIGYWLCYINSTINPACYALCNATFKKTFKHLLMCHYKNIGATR

[5] = target: 3',5'-cyclic-AMP phosphodiesterase 4D (Homo sapiens, UniProt Q08499); assay type: functional
Sequence of 3',5'-cyclic-AMP phosphodiesterase 4D (Q08499 whole entry): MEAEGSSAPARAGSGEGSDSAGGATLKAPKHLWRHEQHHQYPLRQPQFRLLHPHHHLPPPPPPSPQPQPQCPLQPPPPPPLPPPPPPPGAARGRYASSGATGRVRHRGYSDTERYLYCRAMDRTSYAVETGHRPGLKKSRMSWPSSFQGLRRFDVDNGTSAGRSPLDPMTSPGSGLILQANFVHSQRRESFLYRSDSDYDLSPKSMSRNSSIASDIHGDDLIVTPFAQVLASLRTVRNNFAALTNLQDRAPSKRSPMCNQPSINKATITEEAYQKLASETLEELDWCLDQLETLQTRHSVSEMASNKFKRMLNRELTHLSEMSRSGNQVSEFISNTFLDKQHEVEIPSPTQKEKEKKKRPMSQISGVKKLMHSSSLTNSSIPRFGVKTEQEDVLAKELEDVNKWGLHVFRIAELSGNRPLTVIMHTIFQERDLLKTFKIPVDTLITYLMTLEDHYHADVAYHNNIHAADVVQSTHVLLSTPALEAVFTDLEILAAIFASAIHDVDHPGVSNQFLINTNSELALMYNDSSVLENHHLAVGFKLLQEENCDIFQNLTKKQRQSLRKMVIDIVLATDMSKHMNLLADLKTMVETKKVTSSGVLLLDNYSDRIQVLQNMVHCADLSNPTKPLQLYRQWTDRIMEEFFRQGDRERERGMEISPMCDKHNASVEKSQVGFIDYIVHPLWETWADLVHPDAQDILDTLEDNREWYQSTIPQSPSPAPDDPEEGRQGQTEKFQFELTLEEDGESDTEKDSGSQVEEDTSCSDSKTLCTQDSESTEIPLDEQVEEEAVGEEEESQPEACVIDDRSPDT

[6] = target: T3, 5-hydroxytryptamine receptor 2C (Homo sapiens, UniProt P28335)
T3 sequence (P28335 whole entry): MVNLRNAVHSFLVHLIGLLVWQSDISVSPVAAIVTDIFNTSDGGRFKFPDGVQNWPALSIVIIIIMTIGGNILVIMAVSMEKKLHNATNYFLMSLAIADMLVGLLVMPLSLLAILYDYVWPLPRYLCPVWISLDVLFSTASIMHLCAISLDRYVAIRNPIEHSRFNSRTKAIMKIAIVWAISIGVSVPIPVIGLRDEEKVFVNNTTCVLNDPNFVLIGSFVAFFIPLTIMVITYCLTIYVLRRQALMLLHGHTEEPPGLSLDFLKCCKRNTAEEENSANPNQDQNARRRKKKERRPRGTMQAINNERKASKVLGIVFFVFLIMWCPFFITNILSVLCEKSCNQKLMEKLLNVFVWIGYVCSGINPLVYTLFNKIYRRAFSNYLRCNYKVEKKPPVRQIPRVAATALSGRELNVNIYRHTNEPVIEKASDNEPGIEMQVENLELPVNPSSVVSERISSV

[7] = target: T4, 5-hydroxytryptamine receptor 1A (Homo sapiens, UniProt P08908); assay type: functional, cell-based
T4 sequence (P08908 whole entry): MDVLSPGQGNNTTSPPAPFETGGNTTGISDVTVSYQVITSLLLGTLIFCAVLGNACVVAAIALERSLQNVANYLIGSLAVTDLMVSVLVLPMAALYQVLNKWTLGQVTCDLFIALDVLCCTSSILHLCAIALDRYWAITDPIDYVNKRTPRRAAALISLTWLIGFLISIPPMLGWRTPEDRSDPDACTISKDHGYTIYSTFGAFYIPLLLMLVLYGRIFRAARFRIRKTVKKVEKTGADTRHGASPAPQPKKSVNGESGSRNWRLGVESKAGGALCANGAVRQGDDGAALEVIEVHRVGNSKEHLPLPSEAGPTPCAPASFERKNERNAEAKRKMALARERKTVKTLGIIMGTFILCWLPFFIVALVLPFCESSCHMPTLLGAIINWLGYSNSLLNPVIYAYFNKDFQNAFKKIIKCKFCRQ

[8] = target: Voltage-gated inwardly rectifying potassium channel KCNH2 (Homo sapiens, UniProt Q12809); assay type: functional; settings: read-out: AC50
Sequence of Voltage-gated inwardly rectifying potassium channel KCNH2 (Q12809 whole entry): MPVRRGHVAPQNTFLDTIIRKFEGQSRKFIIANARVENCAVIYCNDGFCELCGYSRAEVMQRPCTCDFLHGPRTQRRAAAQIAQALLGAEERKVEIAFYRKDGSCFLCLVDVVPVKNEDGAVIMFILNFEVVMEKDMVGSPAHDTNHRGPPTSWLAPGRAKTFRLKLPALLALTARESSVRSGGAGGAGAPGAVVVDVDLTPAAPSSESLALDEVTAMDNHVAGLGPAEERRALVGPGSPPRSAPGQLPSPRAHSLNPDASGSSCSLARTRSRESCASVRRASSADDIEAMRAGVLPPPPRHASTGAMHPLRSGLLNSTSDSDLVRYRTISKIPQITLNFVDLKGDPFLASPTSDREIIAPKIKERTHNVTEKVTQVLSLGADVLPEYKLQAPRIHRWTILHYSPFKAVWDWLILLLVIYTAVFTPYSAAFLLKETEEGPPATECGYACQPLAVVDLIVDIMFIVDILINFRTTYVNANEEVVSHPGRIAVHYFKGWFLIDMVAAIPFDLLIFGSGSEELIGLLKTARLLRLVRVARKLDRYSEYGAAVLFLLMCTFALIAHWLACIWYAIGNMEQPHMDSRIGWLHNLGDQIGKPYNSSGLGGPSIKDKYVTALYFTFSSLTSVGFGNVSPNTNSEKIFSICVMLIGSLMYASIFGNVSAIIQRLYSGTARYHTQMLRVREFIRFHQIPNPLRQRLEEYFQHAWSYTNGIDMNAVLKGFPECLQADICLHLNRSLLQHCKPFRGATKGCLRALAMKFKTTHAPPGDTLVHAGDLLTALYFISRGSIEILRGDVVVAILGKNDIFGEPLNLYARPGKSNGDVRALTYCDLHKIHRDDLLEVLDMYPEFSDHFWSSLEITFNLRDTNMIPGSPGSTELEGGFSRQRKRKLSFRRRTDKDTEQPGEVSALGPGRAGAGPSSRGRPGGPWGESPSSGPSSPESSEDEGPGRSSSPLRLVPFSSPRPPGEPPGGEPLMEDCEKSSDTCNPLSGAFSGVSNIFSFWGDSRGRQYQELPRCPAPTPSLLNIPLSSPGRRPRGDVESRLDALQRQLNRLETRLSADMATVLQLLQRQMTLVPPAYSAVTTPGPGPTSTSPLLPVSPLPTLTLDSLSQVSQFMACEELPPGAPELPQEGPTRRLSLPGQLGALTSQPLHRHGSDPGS

[9] = target: T5, Amine oxidase [flavin-containing] A (Homo sapiens, UniProt P21397); assay type: functional
T5 sequence (P21397 whole entry): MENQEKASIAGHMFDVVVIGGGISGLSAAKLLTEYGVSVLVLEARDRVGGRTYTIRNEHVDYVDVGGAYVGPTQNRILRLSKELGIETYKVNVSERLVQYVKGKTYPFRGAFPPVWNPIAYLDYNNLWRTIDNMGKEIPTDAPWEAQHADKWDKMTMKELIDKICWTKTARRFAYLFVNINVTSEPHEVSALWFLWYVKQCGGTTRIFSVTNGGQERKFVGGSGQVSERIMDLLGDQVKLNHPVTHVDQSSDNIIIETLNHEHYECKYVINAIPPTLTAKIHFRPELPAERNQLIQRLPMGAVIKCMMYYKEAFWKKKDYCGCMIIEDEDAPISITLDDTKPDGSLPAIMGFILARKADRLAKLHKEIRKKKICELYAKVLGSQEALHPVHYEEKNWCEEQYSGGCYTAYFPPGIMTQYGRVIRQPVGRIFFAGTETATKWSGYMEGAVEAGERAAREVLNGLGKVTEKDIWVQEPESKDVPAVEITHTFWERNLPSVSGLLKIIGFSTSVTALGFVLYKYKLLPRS

[10] = target: Growth hormone secretagogue receptor type 1 (Homo sapiens, UniProt Q92847)
Sequence of Growth hormone secretagogue receptor type 1 (Q92847 whole entry): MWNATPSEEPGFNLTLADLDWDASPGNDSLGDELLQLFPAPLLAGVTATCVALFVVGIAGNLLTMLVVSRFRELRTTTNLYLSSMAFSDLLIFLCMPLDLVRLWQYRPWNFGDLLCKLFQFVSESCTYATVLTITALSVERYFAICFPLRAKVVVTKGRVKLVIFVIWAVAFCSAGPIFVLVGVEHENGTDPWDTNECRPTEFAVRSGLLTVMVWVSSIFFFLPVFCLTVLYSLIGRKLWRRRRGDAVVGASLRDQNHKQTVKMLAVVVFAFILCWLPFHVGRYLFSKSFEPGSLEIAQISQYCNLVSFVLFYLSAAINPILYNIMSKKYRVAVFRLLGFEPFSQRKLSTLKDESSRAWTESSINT
Further: assay procedure not described here.

Sequence of Sodium-dependent noradrenaline transporter (P23975 whole entry): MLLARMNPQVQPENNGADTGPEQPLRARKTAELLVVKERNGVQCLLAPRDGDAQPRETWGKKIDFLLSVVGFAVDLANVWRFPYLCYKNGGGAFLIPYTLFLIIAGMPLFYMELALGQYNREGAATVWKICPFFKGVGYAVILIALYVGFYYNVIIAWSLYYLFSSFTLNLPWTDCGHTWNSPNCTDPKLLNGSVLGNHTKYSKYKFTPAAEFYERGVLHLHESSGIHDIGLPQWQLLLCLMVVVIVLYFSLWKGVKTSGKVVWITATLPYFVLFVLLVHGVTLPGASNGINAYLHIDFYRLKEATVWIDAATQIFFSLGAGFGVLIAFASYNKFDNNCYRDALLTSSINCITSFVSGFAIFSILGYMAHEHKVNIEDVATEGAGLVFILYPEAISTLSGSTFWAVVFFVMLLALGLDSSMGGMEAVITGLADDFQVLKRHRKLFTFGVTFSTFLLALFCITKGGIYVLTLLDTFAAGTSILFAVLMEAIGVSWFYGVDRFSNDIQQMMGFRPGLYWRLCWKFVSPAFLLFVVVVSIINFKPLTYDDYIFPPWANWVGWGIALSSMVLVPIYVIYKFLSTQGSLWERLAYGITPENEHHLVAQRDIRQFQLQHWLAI

Row | SMILES | AC50 [1] [µM] | AC50 [2] [µM] | AC50 [3] [µM] | AC50 (D(1A) dopamine receptor) [µM] | AC50 [4] [µM] | AC50 [5] [µM] | AC50 [6] [µM] | AC50 [7] [µM] | AC50 [8] [µM] | AC50 [9] [µM] | AC50 [10] [µM]
1 | Nc1nc(N)c2nc(-c3ccccc3)c(N)nc2n1 | > 30 | > 30 | > 30 | > 30 | > 30 | 24 | > 30 | > 30 | > 30 | > 30 | > 30
2 | NS(=O)(=O)c1cc2c(cc1Cl)NCNS2(=O)=O [HYDROCHLOROTHIAZIDE] | > 10 | > 10 | > 10 | > 10 | > 10 | > 10 | > 10 | > 10 | > 30 | > 10 | > 30
3 | NC1=NC(=O)C(c2ccccc2)O1 (configuration not stated) [PEMOLINE] | > 30 | > 10 | > 10 | > 10 | > 10 | > 30 | > 30 | > 10 | > 30 | > 10 | > 30
4 | N[C@@H](C(=O)N[C@@H]1C(=O)N2C(C(=O)O)=C(Cl)CS[C@H]12)c1ccccc1 [CEFACLOR ANHYDROUS] | > 30 | > 30 | > 30 | > 30 | > 30 | > 30 | > 10 | > 30 | > 30 | > 30 | > 30
5 | O=C(O)c1cc(-c2ccc(F)cc2F)ccc1O [DIFLUNISAL] | > 10 | > 10 | > 10 | > 30 | > 10 | > 30 | > 30 | > 10 | > 30 | > 10 | > 10
6 | C[C@@H]1O[C@@H]1P(=O)(O)O [FOSFOMYCIN] | > 10 | > 10 | > 10 | > 10 | > 10 | > 30 | > 30 | > 10 | > 30 | > 10 | > 10
7 | OCc1cc([C@@H](O)CNCCCCCCOCCOCc2c(Cl)cccc2Cl)ccc1O [VILANTEROL] | 23 | > 30 | > 30 | 2.2 | > 30 | 18 | > 30 | > 30 | – | > 30 | 13
8 | COC(=O)[C@@H]1CC2=CC(=O)CC[C@]2(C)[C@@]23O[C@@H]2C[C@@]2(C)[C@@H](CC[C@@]24CCC(=O)O4)[C@H]13 [EPLERENONE] | > 30 | > 30 | > 10 | > 30 | > 30 | > 30 | > 30 | > 30 | > 30 | > 30 | > 30
